From patent US20080051466A1, “Isoalpha acid based protein kinase modulation cancer treatment” (Metaproteomics, LLC, priority 2006, published 2008)
Marks after values point to notes of the source that are not given here.

Key:
LPS/3T3-L1 adipocytes [1] = assay: Adiponectin secretion in LPS/3T3-L1 adipocytes; assay type: cell-based, murine; details: 100 ng/ml LPS; for induction of adiponectin secretion: any of the doses tested
[2] = system: insulin-resistant 3T3-L1 adipocytes; assay: Adiponectin secretion from insulin-resistant 3T3-L1 adipocytes; assay type: cell-based, murine; details: 50.0 μg/ml
Description: 3T3-L1 cells were seeded at an initial density of 1×10^4 cells/cm^2 in 96-well plates. For two days, the cells were allowed grow to reach confluence. Following confluence, the cells were forced to differentiate into adipocytes by the addition of differentiation medium; this medium consisted of (1) 10% FBS/DMEM (high glucose); (2) 0.5 mM methylisobutylxanthine; (3) 0.5 μM dexamethasone and (4) 10 μg/ml insulin (MDI medium). From Day 3 through Day 5, the medium was changed to post-differentiation medium consisting of 10 μg/ml insulin in 10% FBS/DMEM.
Briefly, on Day 6, cells were maintained in serum-free media containing 0.5% bovine serum albumin (BSA) for three hours and then treated with 1 μg insulin/ml plus solvent or insulin plus test material. […] Twenty-four hours later, the supernatant medium was sampled for adiponectin determination.
(§1) Adiponectin Assay—The adiponectin secreted into the medium was quantified using the Mouse Adiponectin Quantikine® Immunoassay kit with no modifications (R&D Systems, Minneapolis, Minn.).
Substituting {relative adiponectin secretion/[concentration])} for the independent variable v/[S] and {relative adiponectin secretion} for the dependant variable {v}, produced a relationship of the form y=mx+b. […]

LPS/3T3-L1 adipocytes [3] = assay: IL-6 secretion in LPS/3T3-L1 adipocytes; assay type: cell-based, murine; details: 100 ng LPS/ml, D5 3T3-L1
[4] = system: TNFα-treated 3T3-L1 adipocytes; assay: Adiponectin secretion from TNFα-treated 3T3-L1 adipocytes; assay type: cell-based, murine; details: for increase of adiponectin secretion in the presence of TNFα: optimal concentration; for Concentration of maximum adiponectin secretion: over four doses
Description: 3T3-L1 cells were seeded at an initial density of 1×10^4 cells/cm^2 in 96-well plates. For two days, the cells were allowed grow to reach confluence. Following confluence, the cells were forced to differentiate into adipocytes by the addition of differentiation medium; this medium consisted of (1) 10% FBS/DMEM (high glucose); (2) 0.5 mM methylisobutylxanthine; (3) 0.5 μM dexamethasone and (4) 10 μg/ml insulin (MDI medium). From Day 3 through Day 5, the medium was changed to post-differentiation medium consisting of 10% FBS in DMEM. […] On Day 6, the supernatant medium was sampled for adiponectin determination.
as §1

NF-kBp65 = NF-kBp65 nuclear translocation in TNFα-treated 3T3-L1 adipocytes; assay type: cell-based, murine; details: 2.5 and 5.0 μg/ml, three or 24 hours following TNFα
Description: Cell Culture and Treatment—Following differentiation 3T3-L1 adipocytes were maintained in post-differentiation medium for an additional 40 days. […] Hops derivatives and the positive control pioglitazone were tested at concentrations of 2.5, and 5.0 μg/ml. Test materials were added 1 hour prior to and nuclear extracts were prepared three and 24 hours following treatment with TNFα.
ELISA-3T3-L1 adipocytes were maintained in growth media for 40 days following differentiation. Nuclear NF-kBp65 was determined using the TransAM™ NF-kB kit from Active Motif (Carlsbad, Calif.) was used with no modifications. Jurkat nuclear extracts provided in the kit were derived from cells cultured in medium supplemented with 50 ng/ml TPA (phorbol, 12-myristate, 13 acetate) and 0.5 μM calcium ionophore A23187 for two hours at 37° C. immediately prior to harvesting.
Protein assay—Nuclear protein was quantified using the Active Motif Fluorescent Protein Quantification Kit.

[5] = system: A549 pulmonary epithelial cells; assay: PGE2 biosynthesis in A549 cells stimulated by mite dust allergen; assay type: cell-based, human; details: 10 μg/ml, mite dust allergen 1000 ng/ml, 18 h
Description: The filtrate was termed mite dust allergen and used to test for induction of PGE2 biosynthesis in A549 pulmonary epithelial cells.
Mite allergen was added to the culture medium to achieve a final concentration of 1000 ng/ml. Eighteen hours later, the media were sampled for PGE2 determination.

For `CC(=O)Oc1ccccc1C(=O)O` [Aspirin, aspirin], the “induction of adiponectin secretion” value (LPS/3T3-L1 adipocytes [1]) was “failed to induce adiponectin secretion”.
In the case of `CC(C)CCC1=C(O)C(C(=O)C(C)C)=C(O)C(CCC(C)C)(CCC(C)C)C1=O` [Hexahydrocolupulone (HHCL)], the Adiponectin/IL-6 [2] was 0.60#.
`COc1ccc2c(c1)c(CC(=O)O)c(C)n2C(=O)c1ccc(Cl)cc1` [Indomethacin, indomethacin] was tested, and the maximum adiponectin stimulation (LPS/3T3-L1 adipocytes [1]; […]) was 9%, the “Maximum inhibition of IL-6 secretion, % Inhibition” value (LPS/3T3-L1 adipocytes [3]; 5.00 μg/ml) was 53* % and the “increase of adiponectin secretion in the presence of TNFα” value ([4]; 10 ng TNFα/ml) was 94%. The “Concentration of maximum adiponectin secretion” value ([4]; 10 ng TNFα/ml) was 5.0 µg/mL and the “Concentration of maximum adiponectin secretion” value ([4]; 10 ng TNFα/ml, listed as indomethacin) was 2.5 µg/mL.
With `CCc1ccc(CCOc2ccc(CC3SC(=O)NC3=O)cc2)nc1` (stereo not drawn) [Pioglitazone, pioglitazone] the “inhibition of the amount of nuclear NF-kBp65” value (NF-kBp65) was “did not inhibit”, the “IL-6 Index at maximum inhibition” value (LPS/3T3-L1 adipocytes [3]; 5.00 μg/ml (dose of maximum inhibition)) was 0.37* and the “increase of adiponectin secretion in the presence of TNFα” value ([4]; 10 ng TNFα/ml) was 80%. The “Adiponectin Index (relative maximum adiponectin secretion)” value ([4]; 10 ng TNFα/ml, [Adiponectin]Test/[Adiponectin]TNFα control) was 1.47 and the “Adiponectin Index Observed” value ([4]; 1.0 μg/ml, TNFα/3T3-L1, curcumin/XN combinations, indexed to TNFα control) was 1.80.
`O=C(O)c1ccccc1O` [salicylic acid] was tested, and the “induction of adiponectin secretion” value (LPS/3T3-L1 adipocytes [1]) was “failed to induce adiponectin secretion” and the “IL-6 Index at maximum inhibition” value (LPS/3T3-L1 adipocytes [3]; 50.0 μg/ml (dose of maximum inhibition)) was 0.52*.
In the case of Beta acids, the “Percent PGE2 Inhibition” value [5] was 83%.
